Tests used:
[1] = system: DU-145; experiment: Growth inhibitory activity was measured for human DU145 tumor cell line.; assay type: functional; details: read-out: ID50 (the source's name)
[2] = system: PC-3; experiment: Growth inhibitory activity was measured for human PC-3 tumor cell line.; assay type: functional; details: read-out: ID50 (the source's name)
[3] = system: HT-29; experiment: Growth inhibitory activity was measured for human HT-29 tumor cell line.; assay type: functional; details: read-out: ID50 (the source's name)
[4] = system: A549; experiment: Growth inhibitory activity was measured for human A549 tumor cell line.; assay type: functional; details: read-out: ID50 (the source's name)
[5] = system: U-251; experiment: Growth inhibitory activity was measured for human U251MG NCI tumor cell line.; assay type: functional; details: read-out: ID50 (the source's name)
[6] = system: DU-145; experiment: The concentration levels of spermine (SP), evaluated in DU145 cells treated with the compound concentration of 2 uM on first day of treatment.; assay type: functional, cell-based; details: Homo sapiens
[7] = system: DU-145; experiment: The concentration levels of spermine (SP) evaluated in DU145 cells treated with the compound concentration of 0.02 uM on third day of treatment.; assay type: functional, cell-based; details: Homo sapiens
[8] = system: DU-145; experiment: The concentration levels of putrescine (PU) evaluated in DU145 cells treated with the compound concentration of 2 uM on first day of treatment; Not quanitfiable; assay type: functional, cell-based; details: Homo sapiens
[9] = system: DU-145; experiment: The concentration levels of putrescine (PU) evaluated in DU145 cells treated with the compound concentration of 0.02 uM on first day of treatment.; assay type: functional, cell-based; details: Homo sapiens
[10] = system: DU-145; experiment: The concentration levels of spermidine (SD), evaluated in DU145 cells treated with the compound concentration of 2 uM on first day of treatment.; assay type: functional, cell-based; details: Homo sapiens
[11] = system: DU-145; experiment: The concentration levels of spermidine (SD) evaluated in DU145 cells treated with the compound concentration of 0.02 uM on third day of treatment.; assay type: functional, cell-based; details: Homo sapiens
[12] = system: DU-145; experiment: The concentration levels of spermidine (SD), evaluated in DU145 cells treated with the compound concentration of 0.02 uM on first day of treatment.; assay type: functional, cell-based; details: Homo sapiens
[13] = system: DU-145; experiment: The concentration levels of analogue evaluated in DU145 cells treated with the compound concentration of 0.02 uM on first day of treatment.; assay type: functional, cell-based; details: Homo sapiens
[14] = system: DU-145; experiment: The concentration levels of spermine (SP), evaluated in DU145 cells treated with the compound concentration of 0.02 uM on first day of treatment.; assay type: functional, cell-based; details: Homo sapiens
[15] = system: DU-145; experiment: The concentration levels of analogue evaluated in DU145 cells treated with the compound concentration of 0.02 uM on third day of treatment.; assay type: functional, cell-based; details: Homo sapiens
[16] = system: DU-145; experiment: The concentration levels of spermidine (SD) evaluated in DU145 cells treated with the compound concentration of 2 uM on third day of treatment; Not quantifiable; assay type: functional, cell-based; details: Homo sapiens
[17] = system: DU-145; experiment: The concentration levels of putrescine (PU) evaluated in DU145 cells treated with the compound concentration of 2 uM on third day of treatment; Not quantifiable; assay type: functional, cell-based; details: Homo sapiens
[18] = system: DU-145; experiment: The concentration levels of analogue evaluated in DU145 cells treated with the compound concentration of 2 uM on third day of treatment.; assay type: functional, cell-based; details: Homo sapiens
[19] = system: DU-145; experiment: The concentration levels of analogue evaluated in DU145 cells treated with the compound concentration of 2 uM on first day of treatment.; assay type: functional, cell-based; details: Homo sapiens
[20] = system: DU-145; experiment: The concentration levels of putrescine (PU) evaluated in DU145 cells treated with the compound concentration of 0.02 uM on third day of treatment.; assay type: functional, cell-based; details: Homo sapiens
[21] = system: DU-145; experiment: The concentration levels of spermine (SP) evaluated in DU145 cells treated with the compound concentration of 2 uM on third day of treatment.; assay type: functional, cell-based; details: Homo sapiens
[22] = system: DU-145; experiment: The concentration levels of spermidine (SD), evaluated in DU145 cells treated with the compound concentration of 5 uM on third day of treatment.; assay type: functional, cell-based; details: Homo sapiens
[23] = system: DU-145; experiment: The concentration levels of spermidine (SD) evaluated in DU145 cells treated with the compound concentration of 0.02 uM on fifth day of treatment.; assay type: functional, cell-based; details: Homo sapiens
[24] = system: DU-145; experiment: The concentration levels of analogue evaluated in DU145 cells treated with the compound concentration of 5 uM on fifth day of treatment.; assay type: functional, cell-based; details: Homo sapiens
[25] = system: DU-145; experiment: The concentration levels of spermidine (SD), evaluated in DU145 cells treated with the compound concentration of 0.02 uM on third day of treatment.; assay type: functional, cell-based; details: Homo sapiens
[26] = system: DU-145; experiment: The concentration levels of putrescine (PU) evaluated in DU145 cells treated with the compound concentration of 5 uM on fifth day of treatment.; assay type: functional, cell-based; details: Homo sapiens
[27] = system: DU-145; experiment: The concentration levels of analogue evaluated in DU145 cells treated with the compound concentration of 5 uM on third day of treatment.; assay type: functional, cell-based; details: Homo sapiens
[28] = system: DU-145; experiment: The concentration levels of spermine (SP) evaluated in DU145 cells treated with the compound concentration of 5 uM on fifth day of treatment.; assay type: functional, cell-based; details: Homo sapiens
[29] = system: DU-145; experiment: The concentration levels of analogue evaluated in DU145 cells treated with the compound concentration of 0.02 uM on fifth day of treatment.; assay type: functional, cell-based; details: Homo sapiens
[30] = system: DU-145; experiment: The concentration levels of spermine (SP) evaluated in DU145 cells treated with the compound concentration of 0.02 uM on fifth day of treatment.; assay type: functional, cell-based; details: Homo sapiens
[31] = system: DU-145; experiment: The concentration levels of spermidine (SD) evaluated in DU145 cells treated with the compound concentration of 5 uM on fifth day of treatment.; assay type: functional, cell-based; details: Homo sapiens
[32] = system: DU-145; experiment: The concentration levels of putrescine (PU) evaluated in DU145 cells treated with the compound concentration of 5 uM on third day of treatment.; assay type: functional, cell-based; details: Homo sapiens
[33] = system: DU-145; experiment: The concentration levels of spermine (SP), evaluated in DU145 cells treated with the compound concentration of 0.02 uM on third day of treatment.; assay type: functional, cell-based; details: Homo sapiens
[34] = system: DU-145; experiment: The concentration levels of spermine (SP), evaluated in DU145 cells treated with the compound concentration of 5 uM on third day of treatment.; assay type: functional, cell-based; details: Homo sapiens
[35] = system: DU-145; experiment: The concentration levels of putrescine (PU) evaluated in DU145 cells treated with the compound concentration of 0.02 uM on fifth day of treatment.; assay type: functional, cell-based; details: Homo sapiens

SMILES: CCNCCCNCC1CCC1CNCCCNCC (stereo in doubt; 19)
- IC50 [1]: 50 nM
- IC50 [2]: > 31200 nM

SMILES: CCNCCCNCC1CC1CNCCCNCC (stereo in doubt; 5)
- IC50 [3]: 1400 nM
- IC50 [4]: 250 nM
- IC50 [1]: 60 nM
- IC50 [2]: 12400 nM

SMILES: CCNCCCNCC1CC1CNCCCNCC (stereo in doubt; 9) [listing 1 of 2 here]
- IC50 [4]: 120 nM
- IC50 [1]: 20 nM
- IC50 [5]: 100 nM

SMILES: CCNCCCNCC1CC1CNCCCNCC (stereo in doubt; 9) [listing 2 of 2 here]
- Concentration (nM (10e6*cells)-1) [6]: 0.4
- Concentration (nM (10e6*cells)-1) [7]: 1.97
- Concentration [8]: Not quantifiable
- Concentration (nM (10e6*cells)-1) [9]: 0.18
- Concentration (nM (10e6*cells)-1) [10]: 0.1
- Concentration (nM (10e6*cells)-1) [11]: 1.01
- Concentration (nM (10e6*cells)-1) [12]: 1.64
- Concentration (nM (10e6*cells)-1) [13]: 0.9
- Concentration (nM (10e6*cells)-1) [14]: 2.16
- Concentration (nM (10e6*cells)-1) [15]: 0.15
- Concentration [16]: Not quantifiable
- Concentration [17]: Not quantifiable
- Concentration (nM (10e6*cells)-1) [18]: 3.97
- Concentration (nM (10e6*cells)-1) [19]: 4.08
- Concentration (nM (10e6*cells)-1) [20]: 0.05
- Concentration (nM (10e6*cells)-1) [21]: 0.06

SMILES: CCNCCCNC/C=C/CNCCCNCC
- IC50 ([1]; Homo sapiens, DU-145): 140 nM

SMILES: CCNCCCNCC1CCC1CNCCCNCC (stereo in doubt; 15)
- Concentration (nM (10e6*cells)-1) [22]: 0.15
- Concentration (nM (10e6*cells)-1) [23]: 1.6
- Concentration (nM (10e6*cells)-1) [24]: 1.84
- Concentration (nM (10e6*cells)-1) [25]: 2.13
- Concentration (nM (10e6*cells)-1) [26]: 0.031
- Concentration (nM (10e6*cells)-1) [27]: 1.75
- Concentration (nM (10e6*cells)-1) [28]: 0.2
- Concentration (nM (10e6*cells)-1) [29]: 0.05
- Concentration (nM (10e6*cells)-1) [30]: 2.1
- Concentration (nM (10e6*cells)-1) [31]: 0.06
- Concentration (nM (10e6*cells)-1) [32]: 0.036
- Concentration (nM (10e6*cells)-1) [33]: 3.54
- Concentration (nM (10e6*cells)-1) [34]: 0.49
- Concentration (nM (10e6*cells)-1) [15]: 0.07
- Concentration (nM (10e6*cells)-1) [20]: 0.162
- Concentration (nM (10e6*cells)-1) [35]: 0.081
